# Data taken from patent US20090149482A1, “STEREOCHEMICALLY DEFINED DIPEPTIDE ESTERS OF ANTIVIRAL AGENTS FOR ENHANCED OCULAR TREATMENT” (priority 2001, published 2009).
# Where two headings read alike, the source gives them in different places.
# Experiments:
# [1] = Corneal permeation across freshly excised rabbit cornea; conditions: New Zealand albino
# in vitro = conditions: human, Caco-2, pH 7.4
# [2] = system: oligopeptide transporter on the rabbit cornea; conditions: +10 mM of the ester
# Caco-2 cell suspension = Caco-2 cell suspension at pH 7.4; * = no intact drug detected during the experiment
# hPEPT1 = target: T1, hPEPT1 (Homo sapiens, UniProt P46059); test: [3H] Glycylsarcosine uptake and its inhibition in Caco-2 cells (affinity towards peptide transporter); assay type: cell-based; conditions: for Ki: read-out: Ki
# T1 construct: endogenous in cells; host or cells: Caco-2 (human colon carcinoma, ATCC)
# T1 sequence (P46059 1-708): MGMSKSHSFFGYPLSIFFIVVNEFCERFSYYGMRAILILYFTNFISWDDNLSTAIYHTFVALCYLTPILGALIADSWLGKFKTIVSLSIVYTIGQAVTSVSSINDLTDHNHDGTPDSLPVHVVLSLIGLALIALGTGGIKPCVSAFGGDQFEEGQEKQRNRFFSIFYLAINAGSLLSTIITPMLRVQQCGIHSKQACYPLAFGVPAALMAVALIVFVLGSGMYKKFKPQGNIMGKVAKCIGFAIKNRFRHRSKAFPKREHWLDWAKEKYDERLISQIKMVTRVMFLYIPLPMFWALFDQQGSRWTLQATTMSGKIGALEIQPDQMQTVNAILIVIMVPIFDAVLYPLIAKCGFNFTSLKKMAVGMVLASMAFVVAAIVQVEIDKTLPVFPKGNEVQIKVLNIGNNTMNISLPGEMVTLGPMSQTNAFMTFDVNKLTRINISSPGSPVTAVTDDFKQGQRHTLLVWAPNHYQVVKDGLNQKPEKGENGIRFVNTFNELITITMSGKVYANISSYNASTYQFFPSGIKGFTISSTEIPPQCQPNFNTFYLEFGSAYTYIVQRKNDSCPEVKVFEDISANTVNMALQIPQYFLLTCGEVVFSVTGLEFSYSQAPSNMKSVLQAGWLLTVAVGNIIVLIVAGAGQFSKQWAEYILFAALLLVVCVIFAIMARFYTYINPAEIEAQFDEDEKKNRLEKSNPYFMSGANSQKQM
# Description: Materials: [^3H] Glycylsarcosine (Gly-Sar; 4 Ci/mmol) was purchased from Moravek Biochemicals (Brea, Calif.) and [^14C] Mannitol (50 mCi/mmol) was supplied by Amersham (Piscataway, N.J.). Human colon carcinoma derived Caco-2 cells were obtained from American Type Culture Collection (ATCC, Rockville, Md.). The growth medium, Dulbecco's modified Eagle Medium was obtained from Life Technologies (Grand Island, N.Y.). […] Fetal bovine serum (FBS) was purchased from JRH Biosciences (Lenexa, Kans.). Culture flasks (75 cm^2 growth area), polyester Transwells® (pore size 0.4 Cm with diameter 6.5 mm) and polyester membranes (pore size 0.4 Cm) were procured from Costar (Bedford, Mass.). The buffer components and solvents were obtained from Fisher Scientific (St. Louis, Mo.). All the di-peptide esters of acyclovir were custom synthesized in our laboratory. […] Cell Culture: All cultures were maintained in humidified incubator at 37° C. with a 5% carbon dioxide in air atmosphere. Caco-2 cells were obtained at passage 25 from American Type Culture Collection (ATCC) and grown in plastic tissue culture flasks. […] When 80% confluent, these cells were removed by treating them with Trypsin/EDTA and plated at a density of 100,000 cells/cm^2 on collagen coated plastic dishes containing clear polyester membranes (0.636 cm^2, […]) or 12-well tissue culture treated plastic plates. Cells were then grown in medium containing 10% FBS (heat-inactivated). […] [^14C] […] Metabolism studies in Cell Suspensions: Confluent Caco-2 cells, grown in tissue culture flasks were isolated with the aid of mechanical scraper and washed thrice with DPBS. […] One-hundred micro-liters of samples were withdrawn at predetermined time intervals and the sample was purified by precipitating the cellular proteins into the organic solvent mixture and stored at −80° C. until further analysis. The protein content of the cell suspension was determined by the method of Bradford using bovine serum albumin as the standard (BioRad protein estimation kit, Hercules, Calif.). […] Transport studies: Transport experiments were done using Side-Bi-Side™ diffusion cells (type VSC-1, Crown Glass Company Inc.) and Transwell® inserts. Prior to the experiment with Gly-Sar, Caco-2 cell monolayers grown on the clear polyester membranes and Transwell® inserts were washed with DPBS (pH 6.0) and incubated at 37° C. Freshly prepared drug solutions in DPBS (pH 6.0) was placed in the donor chamber and the receiver chamber was filled with DPBS. The volumes of donor and receptor chambers were 3 ml each for Side-Bi-Side™ diffusion cells and 0.5 ml and 1.5 ml respectively for Transwell® inserts. […] The samples were stored at −80° C. until analyzed HPLC. All experiments were performed at 37° C. […] The concentration dependent uptake of glycylsarcosine was studied using [^3H] […] For Dixon plots and Dose Response studies [^3H] […] Following incubation, the cell monolayers were washed three times with ice-cold HEPES buffer to terminate the uptake experiment. After the washings cells were lysed overnight using 1 ml 0.1% (w/v) Triton X-100 in 0.3 N NaOH at room temperature. Aliquots (500 μl) from each well were then transferred to scintillation vials containing 5 ml scintillation cocktail (Fisher Scientific, Fairlawn, N.J.). […] The amount of protein in the cell lysate was measured by the BioRad protein estimation kit using bovine serum albumin as standard (BioRad Protein estimation Kit, Hercules, Calif.). Analytical Procedures: All samples were assayed using HPLC. […] The column used was a C18 Luna column 4.6×250 mm (Phenomenex). The mobile phase consisted of a mixture of buffer and an organic modifier. The percentage of organic phase was varied in order to elute compounds of interest.
smiles,measurement,setting,value
CC(C)C(NC(=O)C(N)Cc1ccc(O)cc1)C(=O)OCCOCn1cnc2c(=O)[nH]c(N)nc21 (stereo not drawn) [Tyr-Val-ACV],Papp at 3 h,[1],7.19 ×10⁻⁶ cm/s
same,half-life at 0.2 mM,in vitro,6.9 ± 0.3 min
same,Papp (% Control) of [3H] Val-ACV,[2],31.1 (±9.5) % Control
same,10^2 × kobs,Caco-2 cell suspension,10.1 ± 0.46 min^−1mg^−1 protein
same,Vmax of Gly-Sar uptake in presence of the drug,"hPEPT1; Gly-Sar with drug (10 mM), Lineweaver-Burk",0.091 ± 0.07 µmol/min/mg
same,Ki,hPEPT1; Lineweaver-Burk,4.11 ± 0.32 mM
same,Ki,hPEPT1; Michaelis-Menten,4.96 ± 0.97 mM
same,hydrolytic rate constant k,Aqueous Humor,2.3 (±0.11) k × 10^3 min^−1 mg^−1 protein
same,hydrolytic rate constant k,Cornea homogenate,4.9 (±0.69) k × 10^3 min^−1 mg^−1 protein
same,hydrolytic rate constant k,Iris-Ciliary Body homogenate,5.3 (±0.74) k × 10^3 min^−1 mg^−1 protein
same,hydrolytic rate constant k,Lens homogenate,3.1 (±0.63) k × 10^3 min^−1 mg^−1 protein
same,hydrolytic rate constant k,Vitreous Humor,1.7 (±0.56) k × 10^3 min^−1 mg^−1 protein
